What was measured:
S. aureus DSM 20231 = assay: Bliss interaction score (quartile over a dose matrix) (fitness difference); higher = more antagonism (negative = synergy)
Method in brief: (§1)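 Each OD595 reading at entry into stationary phase was scaled to the robust mean of the untreated wells on its plate, with a ceiling of 1. These ratios define fitness, and single-drug fitness was inferred from combinations. The Bliss score compares observed fitness with the product-based expectation and is reported as quartiles across all replicate types, technical, biological and donor/recipient.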

S. aureus Newman = assay: as above
Method in brief: as §1

S. pneumoniae D39V = assay: as above
Method in brief: as §1

B. subtilis 168 [1] = assay: as above
Method in brief: as §1

B. subtilis 168 [2] = assay: fitness (endpoint OD595 vs no drug) (fraction); higher = more growth
Method in brief: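 Plates with 384 wells were inoculated at OD595 0.01 using 30 µl of TSB, LB Lennox or CY, or 55 µl for S. pneumoniae. Incubation was at 37 °C, with OD595 measured every 30 min for 14 h. Fitness is the stationary-phase transition optical density over the robust mean of no-drug control wells, after first-reading background subtraction; it is capped at 1.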
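For Bliss interaction score (quartile over a dose matrix) in this document: first quartile when negative (synergy) and third quartile when positive (antagonism).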

CO[C@@H]1[C@@H](OC(N)=O)[C@@H](O)[C@H](Oc2ccc3c(O)c(NC(=O)c4ccc(O)c(CC=C(C)C)c4)c(=O)oc3c2C)OC1(C)C [Novobiocin] + CN[C@@H]1[C@H](O[C@H]2[C@H](O[C@H]3[C@H](O)[C@@H](O)[C@H](N=C(N)N)[C@@H](O)[C@@H]3N=C(N)N)O[C@@H](C)[C@]2(O)C=O)O[C@@H](CO)[C@H](O)[C@H]1O [Streptomycin] showed a Bliss interaction score (S. aureus DSM 20231) of -0.111, a Bliss interaction score (S. aureus Newman) of -0.172 and a Bliss interaction score (S. pneumoniae D39V) of 0.0562. The Bliss interaction score (B. subtilis 168 [1]) was 0.133, the fitness (B. subtilis 168 [2]; first compound 0.0125 µg/mL, partner 2 µg/mL) was 0.967 and the fitness (B. subtilis 168 [2]; first compound 0.0125 µg/mL, partner 8 µg/mL) was 0.0452. The fitness (B. subtilis 168 [2]; first compound 0.025 µg/mL, partner 2 µg/mL) was ≥ 1, the fitness (B. subtilis 168 [2]; first compound 0.025 µg/mL, partner 4 µg/mL) was 0.725 and the fitness (B. subtilis 168 [2]; first compound 0.025 µg/mL, partner 8 µg/mL) was 0.0379. For the same compound, the fitness (B. subtilis 168 [2]; first compound 0.05 µg/mL, partner 2 µg/mL) was 0.938, the fitness (B. subtilis 168 [2]; first compound 0.05 µg/mL, partner 4 µg/mL) was 0.873 and the fitness (B. subtilis 168 [2]; first compound 0.05 µg/mL, partner 8 µg/mL) was 0.0344. It also gave a fitness (B. subtilis 168 [2]; first compound 0.125 µg/mL, partner 2 µg/mL, one replicate) of 0.926, a fitness (B. subtilis 168 [2]; first compound 0.125 µg/mL, partner 4 µg/mL, one replicate) of 0.928 and a fitness (B. subtilis 168 [2]; first compound 0.125 µg/mL, partner 8 µg/mL, one replicate) of 0.135. For the same compound, the fitness (B. subtilis 168 [2]; first compound 0.25 µg/mL, partner 2 µg/mL, one replicate) was 0.843, the fitness (B. subtilis 168 [2]; first compound 0.25 µg/mL, partner 4 µg/mL, one replicate) was 0.836 and the fitness (B. subtilis 168 [2]; first compound 0.25 µg/mL, partner 8 µg/mL, one replicate) was 0.044. It also gave a fitness (B. subtilis 168 [2]; first compound 0.5 µg/mL, partner 2 µg/mL, one replicate) of 0.592, a fitness (B. subtilis 168 [2]; first compound 0.5 µg/mL, partner 4 µg/mL, one replicate) of 0.537 and a fitness (B. subtilis 168 [2]; first compound 0.5 µg/mL, partner 8 µg/mL, one replicate) of 0.0121.

Work on CO[C@@H]1[C@@H](OC(N)=O)[C@@H](O)[C@H](Oc2ccc3c(O)c(NC(=O)c4ccc(O)c(CC=C(C)C)c4)c(=O)oc3c2C)OC1(C)C [Novobiocin] + COc1cc(Cc2cnc(N)nc2N)cc(OC)c1OC [Trimethoprim] yielded a Bliss interaction score (S. aureus DSM 20231) of 0.134, a Bliss interaction score (S. aureus Newman) of 0.0627 and a Bliss interaction score (S. pneumoniae D39V) of 0.0635. It also gave a Bliss interaction score (B. subtilis 168 [1]) of 0.136, a fitness (B. subtilis 168 [2]; first compound 0.0125 µg/mL, partner 0.5 µg/mL) of 0.566 and a fitness (B. subtilis 168 [2]; first compound 0.0125 µg/mL, partner 1 µg/mL, one replicate) of 0.471. It also gave a fitness (B. subtilis 168 [2]; first compound 0.0125 µg/mL, partner 2 µg/mL, one replicate) of 0.386, a fitness (B. subtilis 168 [2]; first compound 0.025 µg/mL, partner 0.5 µg/mL) of 0.525 and a fitness (B. subtilis 168 [2]; first compound 0.025 µg/mL, partner 1 µg/mL, one replicate) of 0.451. It also gave a fitness (B. subtilis 168 [2]; first compound 0.025 µg/mL, partner 2 µg/mL, one replicate) of 0.386, a fitness (B. subtilis 168 [2]; first compound 0.05 µg/mL, partner 0.1 µg/mL, one replicate) of 0.947 and a fitness (B. subtilis 168 [2]; first compound 0.05 µg/mL, partner 0.125 µg/mL, one replicate) of 0.759. The fitness (B. subtilis 168 [2]; first compound 0.05 µg/mL, partner 0.2 µg/mL, one replicate) was 0.794, the fitness (B. subtilis 168 [2]; first compound 0.05 µg/mL, partner 0.4 µg/mL, one replicate) was 0.546 and the fitness (B. subtilis 168 [2]; first compound 0.05 µg/mL, partner 0.5 µg/mL) was 0.502. For the same compound, the fitness (B. subtilis 168 [2]; first compound 0.05 µg/mL, partner 1 µg/mL, one replicate) was 0.521, the fitness (B. subtilis 168 [2]; first compound 0.05 µg/mL, partner 2 µg/mL, one replicate) was 0.354 and the fitness (B. subtilis 168 [2]; first compound 0.1 µg/mL, partner 0.1 µg/mL, one replicate) was ≥ 1. The fitness (B. subtilis 168 [2]; first compound 0.1 µg/mL, partner 0.125 µg/mL, one replicate) was 0.77, the fitness (B. subtilis 168 [2]; first compound 0.1 µg/mL, partner 0.2 µg/mL, one replicate) was 0.797 and the fitness (B. subtilis 168 [2]; first compound 0.1 µg/mL, partner 0.4 µg/mL, one replicate) was 0.52. For the same compound, the fitness (B. subtilis 168 [2]; first compound 0.1 µg/mL, partner 0.5 µg/mL) was 0.492, the fitness (B. subtilis 168 [2]; first compound 0.125 µg/mL, partner 0.125 µg/mL, one replicate) was 0.835 and the fitness (B. subtilis 168 [2]; first compound 0.125 µg/mL, partner 0.25 µg/mL, one replicate) was 0.56. The fitness (B. subtilis 168 [2]; first compound 0.125 µg/mL, partner 0.5 µg/mL, one replicate) was 0.479, the fitness (B. subtilis 168 [2]; first compound 0.2 µg/mL, partner 0.1 µg/mL, one replicate) was 0.978 and the fitness (B. subtilis 168 [2]; first compound 0.2 µg/mL, partner 0.125 µg/mL, one replicate) was 0.757. It also gave a fitness (B. subtilis 168 [2]; first compound 0.2 µg/mL, partner 0.2 µg/mL, one replicate) of 0.826, a fitness (B. subtilis 168 [2]; first compound 0.2 µg/mL, partner 0.25 µg/mL) of 0.754 and a fitness (B. subtilis 168 [2]; first compound 0.2 µg/mL, partner 0.4 µg/mL, one replicate) of 0.474. It also gave a fitness (B. subtilis 168 [2]; first compound 0.2 µg/mL, partner 0.5 µg/mL) of 0.554, a fitness (B. subtilis 168 [2]; first compound 0.25 µg/mL, partner 0.125 µg/mL, one replicate) of 0.565 and a fitness (B. subtilis 168 [2]; first compound 0.25 µg/mL, partner 0.25 µg/mL, one replicate) of 0.459. For the same compound, the fitness (B. subtilis 168 [2]; first compound 0.25 µg/mL, partner 0.5 µg/mL, one replicate) was 0.45, the fitness (B. subtilis 168 [2]; first compound 0.5 µg/mL, partner 0.125 µg/mL, one replicate) was 0.424 and the fitness (B. subtilis 168 [2]; first compound 0.5 µg/mL, partner 0.25 µg/mL, one replicate) was 0.376. For the same compound, the fitness (B. subtilis 168 [2]; first compound 0.5 µg/mL, partner 0.5 µg/mL, one replicate) was 0.406.

CO[C@@H]1[C@@H](OC(N)=O)[C@@H](O)[C@H](Oc2ccc3c(O)c(NC(=O)c4ccc(O)c(CC=C(C)C)c4)c(=O)oc3c2C)OC1(C)C [Novobiocin] + COc1ccc(C[C@H](N)C(=O)N[C@H]2[C@@H](O)[C@H](n3cnc4c(N(C)C)ncnc43)O[C@@H]2CO)cc1 [Puromycin] gave a Bliss interaction score (S. aureus DSM 20231) of -0.0356, a Bliss interaction score (S. aureus Newman) of -0.0461 and a Bliss interaction score (S. pneumoniae D39V) of 0.105. For the same compound, the Bliss interaction score (B. subtilis 168 [1]) was 0.0583, the fitness (B. subtilis 168 [2]; first compound 0.0125 µg/mL, partner 0.39 µg/mL) was 0.948 and the fitness (B. subtilis 168 [2]; first compound 0.0125 µg/mL, partner 0.78 µg/mL) was 0.954. It also gave a fitness (B. subtilis 168 [2]; first compound 0.0125 µg/mL, partner 1.56 µg/mL) of 0.956, a fitness (B. subtilis 168 [2]; first compound 0.025 µg/mL, partner 0.39 µg/mL) of 0.948 and a fitness (B. subtilis 168 [2]; first compound 0.025 µg/mL, partner 0.78 µg/mL) of 0.964. For the same compound, the fitness (B. subtilis 168 [2]; first compound 0.025 µg/mL, partner 1.56 µg/mL) was 0.907, the fitness (B. subtilis 168 [2]; first compound 0.05 µg/mL, partner 0.39 µg/mL) was 0.973 and the fitness (B. subtilis 168 [2]; first compound 0.05 µg/mL, partner 0.78 µg/mL) was 0.938. It also gave a fitness (B. subtilis 168 [2]; first compound 0.05 µg/mL, partner 1.56 µg/mL) of 0.971, a fitness (B. subtilis 168 [2]; first compound 0.125 µg/mL, partner 0.39 µg/mL, one replicate) of 0.89 and a fitness (B. subtilis 168 [2]; first compound 0.125 µg/mL, partner 0.78 µg/mL, one replicate) of 0.962. The fitness (B. subtilis 168 [2]; first compound 0.125 µg/mL, partner 1.56 µg/mL, one replicate) was 0.905, the fitness (B. subtilis 168 [2]; first compound 0.25 µg/mL, partner 0.39 µg/mL, one replicate) was 0.819 and the fitness (B. subtilis 168 [2]; first compound 0.25 µg/mL, partner 0.78 µg/mL, one replicate) was 0.953. It also gave a fitness (B. subtilis 168 [2]; first compound 0.25 µg/mL, partner 1.56 µg/mL, one replicate) of 0.853, a fitness (B. subtilis 168 [2]; first compound 0.5 µg/mL, partner 0.39 µg/mL, one replicate) of 0.554 and a fitness (B. subtilis 168 [2]; first compound 0.5 µg/mL, partner 0.78 µg/mL, one replicate) of 0.655. The fitness (B. subtilis 168 [2]; first compound 0.5 µg/mL, partner 1.56 µg/mL, one replicate) was 0.544.

CO[C@@H]1[C@@H](OC(N)=O)[C@@H](O)[C@H](Oc2ccc3c(O)c(NC(=O)c4ccc(O)c(CC=C(C)C)c4)c(=O)oc3c2C)OC1(C)C [Novobiocin] + C[n+]1ccc(-c2cc[n+](C)cc2)cc1 [Paraquat] gave a Bliss interaction score (S. aureus DSM 20231) of 0.0456, a Bliss interaction score (S. aureus Newman) of 0.0868 and a Bliss interaction score (S. pneumoniae D39V) of 0.0614. For the same compound, the Bliss interaction score (B. subtilis 168 [1]) was 0.0704, the fitness (B. subtilis 168 [2]; first compound 0.0125 µg/mL, partner 1.25 µg/mL) was 0.937 and the fitness (B. subtilis 168 [2]; first compound 0.0125 µg/mL, partner 2.5 µg/mL) was 0.939. The fitness (B. subtilis 168 [2]; first compound 0.0125 µg/mL, partner 5 µg/mL) was 0.855, the fitness (B. subtilis 168 [2]; first compound 0.025 µg/mL, partner 1.25 µg/mL) was 0.942 and the fitness (B. subtilis 168 [2]; first compound 0.025 µg/mL, partner 2.5 µg/mL) was 0.956. It also gave a fitness (B. subtilis 168 [2]; first compound 0.025 µg/mL, partner 5 µg/mL) of 0.832, a fitness (B. subtilis 168 [2]; first compound 0.05 µg/mL, partner 1.25 µg/mL) of 0.976 and a fitness (B. subtilis 168 [2]; first compound 0.05 µg/mL, partner 2.5 µg/mL) of 0.999. The fitness (B. subtilis 168 [2]; first compound 0.05 µg/mL, partner 5 µg/mL) was 0.912, the fitness (B. subtilis 168 [2]; first compound 0.125 µg/mL, partner 1.25 µg/mL, one replicate) was 0.908 and the fitness (B. subtilis 168 [2]; first compound 0.125 µg/mL, partner 2.5 µg/mL, one replicate) was 0.951. The fitness (B. subtilis 168 [2]; first compound 0.125 µg/mL, partner 5 µg/mL, one replicate) was 0.836, the fitness (B. subtilis 168 [2]; first compound 0.25 µg/mL, partner 1.25 µg/mL, one replicate) was ≥ 1 and the fitness (B. subtilis 168 [2]; first compound 0.25 µg/mL, partner 2.5 µg/mL, one replicate) was 0.878. It also gave a fitness (B. subtilis 168 [2]; first compound 0.25 µg/mL, partner 5 µg/mL, one replicate) of 0.819, a fitness (B. subtilis 168 [2]; first compound 0.5 µg/mL, partner 1.25 µg/mL, one replicate) of 0.664 and a fitness (B. subtilis 168 [2]; first compound 0.5 µg/mL, partner 2.5 µg/mL, one replicate) of 0.517. For the same compound, the fitness (B. subtilis 168 [2]; first compound 0.5 µg/mL, partner 5 µg/mL, one replicate) was 0.452.
